Paper PMC4503722, “Novel Phenotypic Outcomes Identified for a Public Collection of Approved Drugs from a Publicly Accessible Panel of Assays” (PLoS ONE, 2015)
Like-named read-outs stand apart in the source and are kept apart here.

Experiments:
HeLa cells = test: cells; type: cell-based;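 on Hela CellCycMod PI 4N summarized IC50: value tracks stimulation of 4N DNA content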
[1] = test system: endothelial tube formation in co-cultures of ECFCs and ADSCs treated with VEGF; test: cells; type: cell-based, human; conditions: for IC50: read-out: VEGF_ADSC\ECFC Angio CD31 TubeArea summarized IC50
[2] = test system: ECFC/ADSC co-culture cell nuclei number; conditions: for IC50: read-out: VEGF_ADSC\ECFC Angio Hoechst NucArea summarized IC50
[3] = assay number 14, 2N, read-out: Hela CellCycMod PI 2N summarized IC50
[4] = assay number 15, S phase, read-out: Hela CellCycMod PI S Phase summarized IC50
[5] = assay number 16, 4N, read-out: Hela CellCycMod PI 4N summarized IC50
[6] = assay number 17, MI, read-out: Hela CellCycMod PI MI summarized IC50
[7] = assay number 18, cell number, read-out: Hela CellCycMod PI Cell Number summarized IC50

| Structure (SMILES) | Hela CellCycMod PI 2N IC50/EC50 (HeLa cells; assay number 14, 2N) [µM] | Hela CellCycMod PI S Phase IC50/EC50 (HeLa cells; assay number 15, S phase) [µM] | Hela CellCycMod PI 4N IC50/EC50 (HeLa cells; assay number 16, 4N) [µM] | Hela CellCycMod PI MI IC50/EC50 (HeLa cells; assay number 17, MI) [µM] | Hela CellCycMod PI Cell Number IC50/EC50 (HeLa cells; assay number 18, cell number) [µM] | VEGF_ADSC\ECFC Angio CD31 TubeArea IC50/EC50 [1] [µM] | VEGF_ADSC\ECFC Angio Hoechst NucArea IC50/EC50 [2] [µM] | also measured |
| --- | --- | --- | --- | --- | --- | --- | --- | --- |
| O=C1c2c(O)cccc2Cc2cccc(O)c21 [NCGC00091330-07] |  |  |  |  |  |  |  | IC50 (HeLa cells; [3]): > 10 µM; IC50 (HeLa cells; [4]): > 10 µM; IC50 (HeLa cells; [5]): > 10 µM; IC50 (HeLa cells; [6]): > 10 µM; IC50 (HeLa cells; [7]): > 10 µM; IC50 [1]: 0.604 µM; IC50 [2]: > 10 µM |
| COc1ccc(Cc2nccc3cc(OC)c(OC)cc23)cc1OC [NCGC00015810-12] |  |  |  |  |  |  |  | IC50 (HeLa cells; [3]): > 10 µM; IC50 (HeLa cells; [5]): > 10 µM; IC50 (HeLa cells; [6]): > 10 µM; IC50 (HeLa cells; [7]): > 10 µM; IC50 [1]: 7.8 µM; IC50 [2]: > 10 µM |
| CO[C@@H]1[C@@H](OC)[C@H](C)[C@@](O)(CC(=O)O)O[C@H]1[C@H](C)[C@H]1O[C@@]2(CC[C@@](C)([C@H]3CC[C@@](C)([C@@H]4O[C@@H]([C@H]5O[C@](C)(O)[C@H](C)C[C@@H]5C)C[C@@H]4OC4C[C@H](OC)[C@@H](OC)[C@H](C)O4)O3)O2)C[C@H](O)[C@H]1C.N (stereo partly shown) [NCGC00263563-01] | > 10 | > 10 | > 10 | > 10 | 2.751 | 0.2517 | 2.568 |  |
| C1CN(P2(N3CC3)=NP(N3CC3)(N3CC3)=NP(N3CC3)(N3CC3)=N2)CCO1 (stereo not shown) [NCGC00160420-02] | > 10 | > 10 | > 10 | > 10 | > 10 | 3.6152 | > 10 |  |
| O=C(O)CCCc1ccc(N(CCCl)CCCl)cc1 [NCGC00015199-20] |  |  |  |  |  |  |  | IC50/EC50, Hela CellCycMod PI 2N (assay number 14) (HeLa cells; 2N): > 10 µM; IC50/EC50, Hela CellCycMod PI 4N (assay number 16) (HeLa cells; 4N): > 10 µM; IC50/EC50, Hela CellCycMod PI Cell Number (assay number 18) (HeLa cells): > 10 µM; IC50/EC50, Hela CellCycMod PI MI (assay number 17) (HeLa cells; MI): > 10 µM; IC50/EC50, Hela CellCycMod PI S Phase (assay number 15) (HeLa cells): 2.1921 µM; IC50/EC50, VEGF_ADSC\ECFC Angio CD31 TubeArea (assay number 2) [1]: 1.2446 µM; IC50/EC50, VEGF_ADSC\ECFC Angio Hoechst NucArea (assay number 3) [2]: > 10 µM |
| Nc1nc(=O)n([C@@H]2O[C@H](CO)[C@@H](O)[C@@H]2F)cc1I [NCGC00262963-01] | > 10 | > 10 | > 10 | > 10 | 8.504 | 3.4717 | > 10 |  |
| NCCNc1ccc(NCCN)c2c1C(=O)c1ccncc1C2=O [NCGC00274280-01] | 0.042 |  | 0.04829 | > 10 | 0.04206 | 0.0465 | > 10 |  |
| CN(C)/N=N/c1nc[nH]c1C(N)=O [NCGC00091861-07] |  |  |  |  |  |  |  | IC50/EC50, Hela CellCycMod PI 2N (assay number 14) (HeLa cells; 2N): > 10 µM; IC50/EC50, Hela CellCycMod PI 4N (assay number 16) (HeLa cells; 4N): > 10 µM; IC50/EC50, Hela CellCycMod PI Cell Number (assay number 18) (HeLa cells): > 10 µM; IC50/EC50, Hela CellCycMod PI MI (assay number 17) (HeLa cells; MI): > 10 µM; IC50/EC50, Hela CellCycMod PI S Phase (assay number 15) (HeLa cells): > 10 µM; IC50/EC50, VEGF_ADSC\ECFC Angio CD31 TubeArea (assay number 2) [1]: 4.5862 µM; IC50/EC50, VEGF_ADSC\ECFC Angio Hoechst NucArea (assay number 3) [2]: > 10 µM |
| CCCCCCC[N+](CC)(CC)CCCCc1ccc(Cl)cc1.Cc1ccc(S(=O)(=O)[O-])cc1 [NCGC00168464-04] |  |  |  |  |  |  |  | IC50/EC50, Hela CellCycMod PI 2N (assay number 14) (HeLa cells; 2N): > 10 µM; IC50/EC50, Hela CellCycMod PI 4N (assay number 16) (HeLa cells; 4N): > 10 µM; IC50/EC50, Hela CellCycMod PI Cell Number (assay number 18) (HeLa cells): > 10 µM; IC50/EC50, Hela CellCycMod PI MI (assay number 17) (HeLa cells; MI): > 10 µM; IC50/EC50, VEGF_ADSC\ECFC Angio CD31 TubeArea (assay number 2) [1]: 6.3375 µM; IC50/EC50, VEGF_ADSC\ECFC Angio Hoechst NucArea (assay number 3) [2]: > 10 µM |
| COc1ccc(/C=C/C(=O)c2ccc(OC)cc2OC)cc1 [NCGC00160442-03] | > 10 |  | > 10 | > 10 | 0.7082 | 6.6604 | > 10 |  |
| CC(=O)Nc1ccn(C2COC(COC(=O)c3ccccc3)O2)c(=O)n1 (stereo not shown) [NCGC00183850-01] | > 10 | 0.312 | > 10 | > 10 | 0.2813 | 2.3271 | > 10 |  |
| CCCCCCCCCCCC(=O)[O][Sn]([CH2]CCC)([CH2]CCC)[O]C(=O)CCCCCCCCCCC [NCGC00166115-02] |  |  |  |  |  |  |  | IC50 (HeLa cells; [3]): > 10 µM; IC50 (HeLa cells; [4]): > 10 µM; IC50 (HeLa cells; [5]): > 10 µM; IC50 (HeLa cells; [6]): > 10 µM; IC50 (HeLa cells; [7]): > 10 µM; IC50 [1]: 2.01 µM; IC50 [2]: > 10 µM |
| C[C@@H]1C[C@H]2[C@@H]3CCC4=CC(=O)C=C[C@]4(C)[C@@]3(Cl)[C@@H](O)C[C@]2(C)[C@@]1(OC(=O)c1ccco1)C(=O)CCl [NCGC00179578-03] | > 10 | > 10 | > 10 | > 10 |  | 4.9886 | > 10 |  |
| COc1ccc2cc3[n+](cc2c1OC)CCc1cc2c(cc1-3)OCO2 [NCGC00016526-07] | > 10 |  | > 10 | > 10 | > 10 | 2.6815 | > 10 |  |
| Clc1ccc(Nc2nnc(Cc3ccncc3)c3ccccc23)cc1 [NCGC00181350-03] | > 10 | > 10 | > 10 | > 10 | > 10 | 0.1109 | > 10 |  |
| CC(=O)Oc1ccccc1C(=O)Nc1ncc([N+](=O)[O-])s1 [NCGC00090774-05] | > 10 | > 10 | > 10 | > 10 | > 10 | 2.0612 | > 10 |  |
| CCCCCCCCCCCCCCCCNc1ccc(C(=O)O)cc1 [NCGC00261985-01] | > 10 |  | > 10 | > 10 | > 10 | 0.3673 | > 10 |  |
| COCCOC(=O)C1=C(C)NC(C)=C(C(=O)OC/C=C/c2ccccc2)C1c1cccc([N+](=O)[O-])c1 (stereo not shown) [NCGC00162150-04] | > 10 | > 10 | > 10 | > 10 | > 10 | 6.4204 | > 10 |  |
| Nc1nc(F)nc2c1ncn2[C@@H]1O[C@H](CO)[C@@H](O)[C@@H]1O [NCGC00182047-03] | > 10 | > 10 | > 10 | > 10 | > 10 | 8.4496 | > 10 |  |
| O=c1[nH]c(=O)n([C@H]2C[C@H](O)[C@@H](CO)O2)cc1I [NCGC00179673-03] |  |  |  |  |  |  |  | IC50 (HeLa cells; [3]): > 10 µM; IC50 (HeLa cells; [4]): > 10 µM; IC50 (HeLa cells; [5]): > 10 µM; IC50 (HeLa cells; [6]): > 10 µM; IC50 (HeLa cells; [7]): > 10 µM; IC50 [1]: 0.681 µM; IC50 [2]: > 10 µM |
| CC(=O)N(O)CCCCCNC(=O)CCC(=O)N(O)CCCCCNC(=O)CCC(=O)N(O)CCCCCN [NCGC00178802-06] |  |  |  |  |  |  |  | IC50/EC50, Hela CellCycMod PI 2N (assay number 14) (HeLa cells; 2N): > 10 µM; IC50/EC50, Hela CellCycMod PI 4N (assay number 16) (HeLa cells; 4N): > 10 µM; IC50/EC50, Hela CellCycMod PI Cell Number (assay number 18) (HeLa cells): > 10 µM; IC50/EC50, Hela CellCycMod PI MI (assay number 17) (HeLa cells; MI): > 10 µM; IC50/EC50, Hela CellCycMod PI S Phase (assay number 15) (HeLa cells): > 10 µM; IC50/EC50, VEGF_ADSC\ECFC Angio CD31 TubeArea (assay number 2) [1]: 4.5338 µM; IC50/EC50, VEGF_ADSC\ECFC Angio Hoechst NucArea (assay number 3) [2]: > 10 µM |
| O=c1[nH]c(=O)n([C@H]2C[C@H](O)[C@@H](CO)O2)cc1Br [NCGC00090770-09] | > 10 | > 10 | > 10 | > 10 | > 10 | 3.8464 | > 10 |  |
| CC(C)OC(=O)OCOP(=O)(CO[C@H](C)Cn1cnc2c(N)ncnc21)OCOC(=O)OC(C)C.O=C(O)/C=C/C(=O)O [NCGC00183876-03] | > 10 |  | > 10 | > 10 | 0.2888 | 3.8408 | > 10 |  |
| O=C(CCBr)N1CCN(C(=O)CCBr)CC1 [NCGC00095048-06] | > 10 | > 10 | > 10 | > 10 | > 10 | 1.3723 | > 10 |  |
